Reference: patent publication EP0363224A1, “Treatment of periodontal disease” (BLOCK DRUG COMPANY INC., priority 1988, dated 1990)

What was measured:
[1] = test system: alveolar bone resorption; conditions: long-term therapy, compared to matched undosed control group; cited from earlier work
[2] = test system: cyclooxygenase; experiment: inhibition of cyclooxygenase conversion of radiolabeled arachidonic acid into prostaglandins in homogenate of inflamed gingival tissue; assay type: biochemical, humans; conditions: comparison of IC₅₀ values
Procedure: Inflamed gingival tissues from the mouths of humans suffering from periodontal disease were used fresh or stored in liquid nitrogen until used. Tis­sues were pooled, homogenized in 0.2 M TRIS buffer, and centrifuged. Radiolabeled arachidonic acid (¹⁴C) was added to the centrifrugate into which various in­hibiting agents under study had been incorporated into separate aliquots, at various molar levels (log range of 10⁻³ to 10⁻⁹M). The reaction between arachidonic acid and test materials was carried out for 2 hours at 37°C.
Prostaglandins in the biological reaction mixtures were extracted and quantitatively determined by high performance liquid chromatography.

[3] = test system: naturally occurring periodontal disease; conditions: systemic doses, 12-month treatment, compared to untreated or periodontal surgery control groups; cited from earlier work

Row | SMILES | rate of alveolar bone resorption [1] | further results
1 | COc1ccc2c(c1)c(CC(=O)O)c(C)n2C(=O)c1ccc(Cl)cc1 [Indomethacin] | lower rate of alveolar bone resorption | 
2 | CC(C(=O)O)c1cccc(C(=O)c2ccccc2)c1 (stereo not shown) [2-methyl (3-benzoylphenyl) propanoic acid] |  | effectiveness compared with other test materials [2]: slightly more effective than alpha tocopherol
3 | CC(C(=O)O)c1ccc(-c2ccccc2)c(F)c1 (stereo not shown) [Flurbiprofen] |  | alveolar bone loss [3]: significant reduction in alveolar bone loss
4 | CC(=O)Oc1ccccc1C(=O)O [aspirin] | lower rate of alveolar bone resorption | 
